Results on nine compounds are retold here after ChEMBL document CHEMBL1144234, “Novel design principle validated: glucopyranosylidene-spiro-oxathiazole as new nanomolar inhibitor of glycogen phosphorylase, potential antidiabetic agent” (Bioorg Med Chem Lett, 2008).

The Ki is a measure of affinity in units of concentration, obtained from inhibition or displacement. A high value points to a looser hold on the target.

This test deals with T1, Glycogen phosphorylase, muscle form (Oryctolagus cuniculus, UniProt P00489).
T1 sequence (P00489 whole entry): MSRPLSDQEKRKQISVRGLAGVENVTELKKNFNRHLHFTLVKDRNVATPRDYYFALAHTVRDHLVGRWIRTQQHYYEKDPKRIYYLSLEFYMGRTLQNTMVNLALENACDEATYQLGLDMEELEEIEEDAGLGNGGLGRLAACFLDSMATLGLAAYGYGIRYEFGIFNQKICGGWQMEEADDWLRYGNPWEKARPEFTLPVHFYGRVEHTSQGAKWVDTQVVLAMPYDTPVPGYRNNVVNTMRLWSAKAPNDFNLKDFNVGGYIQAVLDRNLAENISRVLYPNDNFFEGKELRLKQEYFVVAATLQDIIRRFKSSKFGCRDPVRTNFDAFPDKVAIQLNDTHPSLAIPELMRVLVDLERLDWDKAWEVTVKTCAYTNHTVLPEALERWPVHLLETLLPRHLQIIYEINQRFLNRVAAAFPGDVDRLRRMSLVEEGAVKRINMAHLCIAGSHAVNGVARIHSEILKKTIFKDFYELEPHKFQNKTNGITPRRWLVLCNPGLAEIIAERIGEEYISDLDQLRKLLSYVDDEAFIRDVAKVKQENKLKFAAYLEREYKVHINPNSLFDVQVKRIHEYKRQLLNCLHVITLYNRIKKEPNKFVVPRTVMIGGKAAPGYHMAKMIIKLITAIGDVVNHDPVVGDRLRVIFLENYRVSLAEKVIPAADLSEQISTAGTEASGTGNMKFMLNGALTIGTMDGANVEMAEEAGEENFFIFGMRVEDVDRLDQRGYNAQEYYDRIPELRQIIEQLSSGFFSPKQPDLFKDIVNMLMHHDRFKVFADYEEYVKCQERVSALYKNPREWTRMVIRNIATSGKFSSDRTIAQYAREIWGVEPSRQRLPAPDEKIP
Description: Inhibition of rabbit muscle glycogen phosphorylase b

For the compound `CC(=O)NC(=O)N[C@@H]1O[C@H](CO)[C@@H](O)[C@H](O)[C@H]1O`, the Ki amounted to 305 µM.

Turning to `O=C(N[C@@H]1O[C@H](CO)[C@@H](O)[C@H](O)[C@H]1O)c1cccc2ccccc12`, the Ki is 444 µM. This Ki and that of the compound before are within 1.5-fold of each other.

Turning to `OC[C@H]1O[C@]2(ON=C(c3ccc(F)cc3)S2)[C@H](O)[C@@H](O)[C@@H]1O`, the Ki worked out at 28 µM. Against the preceding compound, the Ki is about 16-fold lower.

Compound `O=C(NC(=O)c1cccc2ccccc12)N[C@@H]1O[C@H](CO)[C@@H](O)[C@H](O)[C@H]1O` had a Ki of 5 µM.

For `O=C(NC(=O)c1ccc2ccccc2c1)N[C@@H]1O[C@H](CO)[C@@H](O)[C@H](O)[C@H]1O`, the Ki worked out at 0.35 µM.

As to `OC[C@H]1O[C@]2(ON=C(c3ccccc3)S2)[C@H](O)[C@@H](O)[C@@H]1O`, the affinity corresponds to a Ki of 26 µM.

Regarding `COc1ccc(C2=NO[C@]3(O[C@H](CO)[C@@H](O)[C@H](O)[C@H]3O)S2)cc1`, the Ki stood at 8 µM.

As to `O=C(NC1O[C@H](CO)[C@@H](O)[C@H](O)[C@H]1O)c1ccccc1` (single isomer, unassigned), the affinity corresponds to a Ki of 81 µM.

Consider `CC(=O)NC1O[C@H](CO)[C@@H](O)[C@H](O)[C@H]1O` (single isomer, unassigned), for which the affinity corresponds to a Ki of 32 µM. Against the preceding compound, the Ki is about 2.5-fold lower.
